Laboratory results reported in patent US10288626B2, “Secreted tumor-associated cytochrome as a blood-based biomarker for cancer” (University of Kentucky Research Foundation, priority 2012, dated 2019).

Experiments:
[1] = tested on: NCI-H226 cells; assay: Viability / growth of NCI-H226 squamous cell lung cancer cells treated with AG-205; assay type: cell-based; conditions: 96 hours
Procedure: FIG. 2 depicts Pgrmc1 expression and biological activity in SCLC cell lines. (A) Pgrmc1 expression was tested in a group of 3 commonly used SCLC cell lines (upper panel), and ku70 was used as a loading control (lower panel). […] Cells were maintained in medium lacking serum for the indicated time and in all cases, viability was determined by cell counting. (C) Pgrmc1 expression was inhibited by siRNA transfection (upper panel, lane 2) relative to the control transfection (upper panel, lane 1). […] Cells were maintained in media lacking serum for the indicated times. (E) The expression of the exogenous Pgrmc1-hbd protein was detected by western blot in NCI-H226 cells infected with a control adenovirus (lane 1), encoding LacZ, or the Pgrmc1-hbd expression virus (lane 2). The top panel was probed with an antibody to the HA epitope tag sequence, with which Pgrmc1-hbd is fused. (F) NCI-H226 cells were treated with increasing doses of the Pgrmc1 inhibitor AG-205 and maintained with serum (dashed line) or without serum (solid line) for 96 hours.
Tissue culture: […], SK-MES-1 and SW900 squamous cell lung cancer cells and A549 lung adenocarcinoma cells were obtained from the American type culture collection (ATCC) and cultured according to their instructions. The identities of the cell lines were confirmed by Genetica DNA Laboratories (Cincinnati, Ohio). […]
Conditioned media from control and Pgrmc1 knockdown A549 NSCLC cells were generated by incubating cells in serum-free DMEM media for 24 hours. […] For fluorescent activated cell sorting (FACS), cells were stained with propidium iodide and analyzed as described (Mallory et al., Mol Pharmacol 2005, 68: 1747-56). […] For viability assays, cells were plated in 24 well dishes, washed with PBS and harvested by trypsinization and counted using a hemocytometer. Where indicated, cells were plated in 96 well dishes, and viability was measured by 3-(4,5-Dimethylthiazol-2-yl)-2,5-diphenyltetrazolium bromide (MTT) assay, as described (Hand and Craven. J Cell Biochem 2003, 90:534-47).

[2] = tested on: tumor cells; conditions: cited from earlier work
[3] = tested on: EGFR; conditions: cited from earlier work

Compound: Cc1ccc2c(c1)[C@H]1CN(C)CC[C@H]1N2C(=O)CSc1nnnn1-c1ccc(Cl)cc1 [AG-205]
- IC50 ([1]; absence of serum, read-out: IC50, growth inhibition of NCI-H226 cells): 9 µM
- effect on viability of NCI-H226 cells ([1]; absence of serum, increasing doses): loss of viability
- activity on growth of NCI-H226 cells ([1]; presence of serum): minimal activity
- effect on growth in tumor cells [2]: inhibits growth
- effect on EGFR levels [3]: decreases EGFR levels
